Assay [1] has as its system PBMC. In words: Cytokine release assay to measure IL-6 from PBMC (ELISA). Particulars: for stimulation of IL-6 release by PBMC (in words): 6 and 24 hours; for EC50: Homo sapiens. Type of assay: cell-based, human. On the procedure: Fresh blood was collected from healthy volunteers and stored in Heparin Sodium tubes. 15 mL of blood was subsequently transferred to a 50 ml centrifugal tube and gently mixed with equal volume of DPBS. 10 ml Ficoll was slowly underlayed using pipette. The tube was centrifuged for 30 minutes at 800 g at RT without break. The buffy coat (containing PBMC) was aspirated at the interface between serum and Ficoll. The PBMC were washed with sufficient DPBS and centrifuged at 900 g to remove the Ficoll. RPMI-1640 Medium was added to the collected PBMC and the number of PBMC determined by counting. 1 ml of blood typically yields at least 1 million of PBMC.
PBMC were counted and cell densities adjusted. 100 μl of cells were added into the required number of wells such that the cell density for the IL-6 assay was 5,000/well. LD1-oxidized mannan conjugates for screening were serially diluted in DMSO. The LD1 solution was added to each well (final concentration of DMSO in assay was not more than 0.03%). The plates were incubated in a CO2 incubator at 37° C. and supernatants collected at 6 and 24 hours. At each time point of collection, the plates were centrifuged at 900 rpm for 4 minutes and the supernatents transferred to another 96 well plate. These were labelled and stored at −80° C. ELISA kits for IL-6 (Invitrogen) were used for quantitation of cytokine released. The ELISAs were performed as described in the manufacturer's instructions. The absorbances were measured by FlexStation 3. A standard curve for each cytokine was drawn each time for analyzing the data.
The Loxorubine (LOX) derivative, LD1, was synthesised and conjugated to oxidized mannan (LD1-OM) as described above. The LOX derivative, LD1, incorporates a hydrazide linkage for conjugation to aldehyde residues of oxidized mannan and an ester linkage between the linker and the LOX. LD1 oxidized mannan conjugates were used to stimulate PBMCs isolated from human donors and IL-6 cytokine release measured by ELISA.
In general terms: In an ELISA, binding on a coated surface is turned into a signal by an enzyme label.

For assay [2], the system named is MART-1-specific CD8 T cells. In words: Priming and recall of MART-1-specific T cell responses (intracellular IFNγ). In kind it is cell-based, human. Particulars: PBMC and MoDC from donors BC28 and BC29, 20 μg/ml. On the procedure:
MoDC at 2×10^5/ml (for 1:20 MoDC:T cell) in complete AB medium were added to a 24 well plate (1 ml per test condition) followed by protein or >1000 kDa oxidized mannan conjugate (10-20 μg/ml). Four hours later, 4×10^6 CD14 depleted PBMC were added to the wells in 1 ml complete AB medium. After 3 days, 25 U/ml IL-2, 10 ng/ml IL-7 and 10 ng/ml IL-15 was added. The T cells were re-stimulated 7-10 days later with 1×10^5 MoDC loaded with antigen. Twenty four hours following re-stimulation, cultures were supplemented with 25 U/ml IL-2 and again 3-4 days after. T cell cultures were typically analysed after 1 or 2 re-stimulations.
For T cell epitope peptides—Peptide loaded T2 cells (2×10^5/well) were prepared by pulsing with an irrelevant peptide (e.g., CAP-1 10 μg/ml or no peptide) and one with the peptide of interest ([…]) for 1 hour in serum free medium with 1.25 μg/ml β2-microglobulin. T2 cells were added at about a 1:5 ratio (4×10^4/well) in 100 μl to the duplicate T cell wells and incubate for 1 hour at 37° C. 5% CO2. […]
PBMC and MoDC from 2 donors (BC28 and BC29) were used for priming with MART-1 and >1000 kDa oxidized mannan conjugates (20 μg/ml) as described in Example 1. After 1 stimulation, analog and native MART-1 peptide-specific T cell responses were measured using pulsed T2 cells (FIG. 51). […]

Where two headings read alike, the source gives them in different places. Bounds are passed on as bounds.

As for `C=CCn1c(=O)n([C@@H]2O[C@H](COC(=O)c3ccc(NN)nc3)[C@@H](O)[C@H]2O)c2nc(N)[nH]c(=O)c21` [LD1, ((2R,3S,4R,5R)-5-(7-allyl-2-amino-6,8-dioxo-1,6,7,8-tetrahydropurin-9-yl)-3,4-dihydroxy-tetrahydrofuran-2-yl)methyl 6-hydrazinylnicotinate], the “stimulation of IL-6 release by PBMC (in words)” value in assay [1] (LOX at 500 μM) is “did not stimulate IL-6”.
As for `C=CCn1c(=O)n([C@@H]2O[C@H](CO)[C@@H](O)[C@H]2O)c2nc(N)[nH]c(=O)c21` [LOX, 7-allyl-7,8-dihydro-8-oxo-guanosine], in assay [1] (LOX at 500 μM), the “stimulation of IL-6 release by PBMC (in words)” value is “able to stimulate IL-6 release”. Also, the “Amount IL-6 (pg/ml), 6 hr” value in assay [1] (6 hr, LOX at 500 μM) is “failed to induce IL-6”. Further, the “Amount IL-6 (pg/ml), 24 hr” value in assay [1] (24 hr, LOX at 500 μM) was found to be 10 pg/mL. The EC50 in assay [1] (6 hr, read-out: EC50 of IL-6, 6 hr) was more than 500 µM; in assay [1] (24 hr, read-out: EC50 of IL-6, 24 hr) it was more than 500 µM.

B1: >1000 kDa oxidized mannan-MART-1: recombinant MART-1 protein linked to >1000 kDa oxidized mannan (conjugate, UniProt Q16655 1-118, looked up)
Melanoma antigen recognized …: MPREDAHFIYGYPKKGHGHSYTTAEEAAGIGILTVILGVLLLIGCWYCRRRNGYRALMDKSLHVGTQCALTRRCPQEGFDHRDSKVSLQEKNCEPVVPNAPPAYEKLSAEQSPPPYSP
modifications: conjugated to >1000 kDa oxidized mannan
notes: recombinant MART-1 protein linked to >1000 kDa oxidized mannan
For B1, the “MART-1-specific T cell responses after priming” value is listed as “efficiently responded to analog or native MART-1 peptides presented by T2 cells” in assay [2] and “more efficient in priming than unconjugated protein” in assay [2] (listed as MART-1 >1000 kDa oxidized mannan).

The term EC50 denotes the concentration needed to bring the measured effect to its halfway point.

The values above are taken from patent US10344261B2, “Immunomodulatory conjugates” (ASCEND BIOPHARMACEUTICALS LTD, priority 2011, dated 2019).
